Key:
Male C57BL/6 mice = assay: Oral glucose tolerance test in C57BL/6 mice; format: in vivo; details: 3 mpk and 10 mpk oral
Protocol: (§1) Male C57BL/6 mice (8-10 weeks) were grouped based on basal glucose levels and animals were fasted for 16 hours. Glucose level of each animal was estimated in blood collected from tail vein before animals were dosed orally with 0.5% Tween 80 and 0.5% NaCMC (vehicle control) and compounds at 3 and 10 mpk (n=5). After 30 minutes of compound dosing, blood glucose was again estimated and 2 g/kg/10 ml (20%) of Glucose solution was administered orally to all the animals. Blood glucose was estimated at 15, 30, 60, 90 and 120 minutes time points after glucose administration. Accu-Check active blood glucose meter was utilised for estimation of blood from tail vein.
Glucose reduction observed in animals treated with compounds of present invention is represented in terms of % AUC reduction. A greater glucose reduction in oral glucose tolerance test indicates the compound's efficacy in this rodent species.

hGPR119 = target: T1, hGPR119 (Homo sapiens, UniProt Q8TDV5); assay: In vitro cyclic AMP assay (Cisbio HTRF) in CHO-hGPR119 cells; format: cell-based; details: cAMP; for activation at 1 µM: 1 h, 60 min, read-out: Induction (% induction at 1 μM); for EC50: class symbols, legend not given
T1 construct: expressed in transfected cells; host or cells: CHO cells (CHO-hGPR119)
T1 sequence (Q8TDV5 1-335): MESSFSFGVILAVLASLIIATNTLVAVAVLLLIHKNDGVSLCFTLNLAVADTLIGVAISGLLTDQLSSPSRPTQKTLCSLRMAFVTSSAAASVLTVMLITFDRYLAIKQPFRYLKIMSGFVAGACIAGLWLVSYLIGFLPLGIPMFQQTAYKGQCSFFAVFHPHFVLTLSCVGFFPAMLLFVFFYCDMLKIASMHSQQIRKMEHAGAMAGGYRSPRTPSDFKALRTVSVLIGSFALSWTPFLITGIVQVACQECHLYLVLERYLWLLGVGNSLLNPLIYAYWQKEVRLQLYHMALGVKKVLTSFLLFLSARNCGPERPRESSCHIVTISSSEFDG
Method in brief: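 Cells plated at 5000/well and exposed to test compound dose series for 60 min at room temperature with 1 mM IBMX and 0.5% DMSO (final). Lysis with anti-cAMP antibody/d2-cAMP detection reagents, 1 h at room temperature; HTRF read at 665/620 nm (337 nm excitation); EC50 from concentration-response.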

Male SD rats = assay: Oral glucose tolerance test in Sprague-Dawley rats; format: in vivo; details: 3 mpk and 10 mpk oral
Protocol: as §1, with “SD rats” for “C57BL/6 mice”
Glucose reduction observed in animals treated with GPR119 agonists is represented in terms of % AUC reduction. A greater glucose reduction in oral glucose tolerance test indicates the compound's efficacy in this rodent species.

CCc1cnc(N2CCC([C@H](C)Oc3nn4cc(-c5ccc(S(C)(=O)=O)cc5F)nc4s3)CC2)nc1 [Compound 1086, 2-((S)-1-(1-(5-ethylpyrimidin-2-yl)piperidin-4-yl)ethoxy)-6-(2-fluoro-4-(methylsulfonyl)phenyl)imidazo[2,1-b][1,3,4]thiadiazole]
glucose reduction (% AUC reduction) in oral glucose tolerance test (Male C57BL/6 mice): significant dose dependent glucose reduction | activation at 1 µM (hGPR119): 87% | EC50 (hGPR119): A++ | glucose reduction (% AUC reduction) in oral glucose tolerance test (Male SD rats): significant dose dependent glucose reduction

CC(C)c1noc(N2CCC([C@H](C)Oc3nn4cc(-c5cnc(S(C)(=O)=O)nc5)nc4s3)CC2)n1 [Compound 1072, (S)-3-isopropyl-5-(4-(1-((6-(2-(methylsulfonyl)pyrimidin-5-yl)imidazo[2,1-b][1,3,4]thiadiazol-2-yl)oxy)ethyl)piperidin-1-yl)-1,2,4-oxadiazole]
glucose reduction (% AUC reduction) in oral glucose tolerance test (Male C57BL/6 mice): significant dose dependent glucose reduction | activation at 1 µM (hGPR119): 72% | EC50 (hGPR119): A++ | glucose reduction (% AUC reduction) in oral glucose tolerance test (Male SD rats): significant dose dependent glucose reduction

CNS(=O)(=O)c1ccc(-c2cn3nc(OC(C)C4CCN(c5nc(C(C)C)no5)CC4)sc3n2)c(F)c1 (centres unmarked) [Compound 1109, 3-fluoro-4-(2-(1-(1-(3-isopropyl-1,2,4-oxadiazol-5-yl)piperidin-4-yl)ethoxy)imidazo[2,1-b][1,3,4]thiadiazol-6-yl)-N-methylbenzenesulfonamide]
glucose reduction (% AUC reduction) in oral glucose tolerance test (Male C57BL/6 mice): significant dose dependent glucose reduction | activation at 1 µM (hGPR119): 55% | glucose reduction (% AUC reduction) in oral glucose tolerance test (Male SD rats): significant dose dependent glucose reduction

CC(C)c1noc(N2CCC([C@@H](C)Oc3nn4cc(-c5ccc(S(C)(=O)=O)cc5F)nc4s3)CC2)n1 [Compound 1088, 2-((R)-1-(1-(3-isopropyl-1,2,4-oxadiazol-5-yl)piperidin-4-yl)ethoxy)-6-(2-fluoro-4-(methylsulfonyl)phenyl)imidazo[2,1-b][1,3,4]thiadiazole]
glucose reduction (% AUC reduction) in oral glucose tolerance test (Male C57BL/6 mice): significant dose dependent glucose reduction | activation at 1 µM (hGPR119): 73% | EC50 (hGPR119): A++

CC(C)c1noc(N2CCC([C@H](C)Oc3nn4cc(-c5cnc(Cl)nc5)nc4s3)CC2)n1 [Compound 1071, (S)-5-(4-(1-((6-(2-chloropyrimidin-5-yl)imidazo[2,1-b][1,3,4]thiadiazol-2-yl)oxy)ethyl)piperidin-1-yl)-3-isopropyl-1,2,4-oxadiazole]
glucose reduction (% AUC reduction) in oral glucose tolerance test (Male C57BL/6 mice): significant dose dependent glucose reduction | activation at 1 µM (hGPR119): 75% | EC50 (hGPR119): A++ | glucose reduction (% AUC reduction) in oral glucose tolerance test (Male SD rats): significant dose dependent glucose reduction

CC(C)OC(=O)N1CCC(C(C)Oc2nn3cc(-c4ccc(S(C)(=O)=O)cc4F)nc3s2)CC1 (centres unmarked) [Compound 1101, Isopropyl 4-(1-(6-(2-fluoro-4-(methylsulfonyl)phenyl)imidazo[2,1-b][1,3,4]thiadiazol-2-yloxy)ethyl)piperidine-1-carboxylate]
glucose reduction (% AUC reduction) in oral glucose tolerance test (Male C57BL/6 mice): significant dose dependent glucose reduction | activation at 1 µM (hGPR119): 84% | glucose reduction (% AUC reduction) in oral glucose tolerance test (Male SD rats): significant dose dependent glucose reduction

CC(C)c1noc(N2CCC(C(C)Oc3nn4cc(-c5ccc(S(C)(=O)=O)cc5C(F)(F)F)nc4s3)CC2)n1 (centres unmarked) [Compound 1091, 2-(1-(1-(3-isopropyl-1,2,4-oxadiazol-5-yl)piperidin-4-yl)ethoxy)-6-(2-(trifluoromethyl)-4-(methylsulfonyl)phenyl)imidazo[2,1-b][1,3,4]thiadiazole]
activation at 1 µM (hGPR119): 33% | glucose reduction (% AUC reduction) in oral glucose tolerance test (Male SD rats): significant dose dependent glucose reduction

CC(Oc1nn2cc(-c3ccc(S(C)(=O)=O)cc3F)nc2s1)C1CCN(c2ncc(Cl)cn2)CC1 (stereo in doubt) [Compound 1090, 2-((S)-1-(1-(5-chloropyrimidin-2-yl)piperidin-4-yl)ethoxy)-6-(2-fluoro-4-(methylsulfonyl)phenyl)imidazo[2,1-b][1,3,4]thiadiazole]
glucose reduction (% AUC reduction) in oral glucose tolerance test (Male C57BL/6 mice): significant dose dependent glucose reduction | activation at 1 µM (hGPR119): 76% | EC50 (hGPR119): A++ | glucose reduction (% AUC reduction) in oral glucose tolerance test (Male SD rats): significant dose dependent glucose reduction

CCCc1cnc(N2CCC(C(C)Oc3nn4cc(-c5ccc(S(C)(=O)=O)nc5)nc4s3)CC2)nc1 (stereo in doubt) [Compound 1081, 2-((S)-1-(1-(5-propylpyrimidin-2-yl)piperidin-4-yl)ethoxy)-6-(6-(methylsulfonyl)pyridin-3-yl)imidazo[2,1-b][1,3,4]thiadiazole]
glucose reduction (% AUC reduction) in oral glucose tolerance test (Male C57BL/6 mice): significant dose dependent glucose reduction | activation at 1 µM (hGPR119): 66% | EC50 (hGPR119): A++

CCCc1cnc(N2CCC([C@H](C)Oc3nn4cc(-c5ccc(S(C)(=O)=O)cc5)nc4s3)CC2)nc1 [Compound 1067, (S)-6-(4-(methylsulfonyl)phenyl)-2-(1-(1-(5-propylpyrimidin-2-yl)piperidin-4-yl)ethoxy)imidazo[2,1-b][1,3,4]thiadiazole]
glucose reduction (% AUC reduction) in oral glucose tolerance test (Male C57BL/6 mice): significant dose dependent glucose reduction | activation at 1 µM (hGPR119): 55% | EC50 (hGPR119): A++ | glucose reduction (% AUC reduction) in oral glucose tolerance test (Male SD rats): significant dose dependent glucose reduction

CCc1cnc(N2CCC(C(C)Oc3nn4cc(-c5ccncc5)nc4s3)CC2)nc1 (stereo in doubt) [Compound 1080, 2-((S)-1-(1-(5-ethylpyrimidin-2-yl)piperidin-4-yl)ethoxy)-6-(pyridin-4-yl)imidazo[2,1-b][1,3,4]thiadiazole]
activation at 1 µM (hGPR119): 74%

CC(C)c1noc(N2CCC(Oc3nsc(-c4ccc(S(C)(=O)=O)nc4)n3)CC2)n1 [Compound 1119, 5-(3-(1-(3-isopropyl-1,2,4-oxadiazol-5-yl)piperidin-4-yloxy)-1,2,4-thiadiazol-5-yl)-2-(methylsulfonyl)pyridine]
activation at 1 µM (hGPR119): 7%

CC(C)OC(=O)N1CCC(c2cn3nc(-c4ccc(C(=O)N(C)C)cc4)sc3n2)CC1 [Compound 1034, isopropyl 4-(2-(4-(dimethylcarbamoyl)phenyl)imidazo[2,1-b][1,3,4]thiadiazol-6-yl)piperidine-1-carboxylate]
activation at 1 µM (hGPR119): 53%

CC(C)c1cnc(N2CCC(C(C)Oc3nn4cc(-c5ccc(S(C)(=O)=O)cc5)nc4s3)CC2)nc1 (centres unmarked) [Compound 1070, 2-(1-(1-(5-isopropylpyrimidin-2-yl)piperidin-4-yl)ethoxy)-6-(4-(methylsulfonyl)phenyl)imidazo[2,1-b][1,3,4]thiadiazole]
activation at 1 µM (hGPR119): 55%

CC(C)OC(=O)N1CCC(c2nn3cc(-c4ccc(S(C)(=O)=O)cc4)nc3s2)CC1 [Compound 1024, isopropyl 4-(6-(4-(methylsulfonyl)phenyl)imidazo[2,1-b][1,3,4]thiadiazol-2-yl)piperidine-1-carboxylate]
activation at 1 µM (hGPR119): 38%

CS(=O)(=O)c1ccc(-c2cn3nc(C4CCN(Cc5ccccc5)CC4)sc3n2)cc1 [Compound 1019, 2-(1-benzylpiperidin-4-yl)-6-(4-(methylsulfonyl)phenyl)imidazo[2,1-b][1,3,4]thiadiazole]
activation at 1 µM (hGPR119): 11%

CC(C)c1noc(N2CCC([C@@H](C)Oc3nn4cc(-c5ccc(S(C)(=O)=O)nc5)nc4s3)CC2)n1 [Compound 1058, (R)-3-isopropyl-5-(4-(1-((6-(6-(methylsulfonyl)pyridin-3-yl)imidazo[2,1-b][1,3,4]thiadiazol-2-yl)oxy)ethyl)piperidin-1-yl)-1,2,4-oxadiazole]
activation at 1 µM (hGPR119): 73% | EC50 (hGPR119): A+

CS(=O)(=O)c1ccc(-c2cn3nc(C4CCN(S(C)(=O)=O)CC4)sc3n2)cc1 [Compound 1031, 6-(4-(methylsulfonyl)phenyl)-2-(1-(methylsulfonyl)piperidin-4-yl)imidazo[2,1-b][1,3,4]thiadiazole]
activation at 1 µM (hGPR119): 1%

CC(C)c1noc(N2CCC(c3nn4cc(-c5ccc(S(C)(=O)=O)cc5)nc4s3)CC2)n1 [Compound 1027, 3-isopropyl-5-(4-(6-(4-(methylsulfonyl)phenyl)imidazo[2,1-b][1,3,4]thiadiazol-2-yl)piperidin-1-yl)-1,2,4-oxadiazole]
activation at 1 µM (hGPR119): 41%

— patent publication US10208030B2, “GPR119 agonist compounds” (Mankind Pharma Ltd., priority 2016, dated 2019)
